{
  "source": "patent US7326727B2",
  "about": "“Furanthiazole derivatives as heparanase inhibitors” (Oxford Glycosciences (UK) Ltd., priority 2002, dated 2008)",
  "data": [
    {"system": "human endothelial cells", "experiment": "Angiogenesis assay (AngioKit, tubule formation by PECAM-1 staining)", "type": "cell-based", "conditions": "Endothelial cell, 264 h, AngioKit co-culture, tubule formation on day 11, PECAM-1 staining relative to untreated control", "source_text": "Angiogenesis Assay: A commercial angiogenesis assay for analysing the angiogenic or anti-angiogenic properties of test compounds (AngioKit catalogue no. ZHA-1000, TCS CellWorks Ltd, Buckingham, U.K) was used. In this assay, human endothelial cells were co-cultured with other human cells in a specifically designed medium. The endothelial cells initially form small islands within the culture matrix. They subsequently proliferate and then enter a migratory phase during which they move through the matrix to form threadlike tubule structures. These gradually join up (by 12-14 days) to form networks of […] tubules which closely resemble a capillary bed structure. These tubules stain positive for von Willebrand's Factor, Platelet Endothelial Cell Adhesion Molecule-1 (PECAM-1 or CD31) and Intercellular Adhesion Molecule-2 (ICAM-2).\nThe assay is supplied as growing cultures at the earliest stage of tubule formation in a 24 well plate format. It is designed so that test compounds and conditioned media can be added to the cultures within individual wells. The resulting effect on tubule formation can then be monitored. Positive and negative test agents are provided in the kit, e.g. Vascular Endothelial Growth Factor (VEGF) and sumarin. All reagents were included as part of the kit and the assay was performed according to the protocol supplied by TCS CellWorks Ltd. Briefly, on day 1, fresh growth medium, medium plus control agent or medium plus test compound was added to the cells and the cultures were incubated at 37° C., 5% CO2. […] The specified medium was changed at days 4, 7 and 9 and the cells were monitored for growth. On day 11, the cells were washed with Dulbecco's Phosphate-Buffered Saline (PBS) and fixed using 70% ethanol (−20° C.) for 30 min at room temperature. After fixing, the cells were washed and treated with blocking buffer, 1% BSA in PBS. The cells were stained for PECAM-1 on the same day, following standard immunohistochemistry procedures well known to those skilled in the art, using mouse anti-human CD31 as the primary antibody and a goat anti-mouse IgG alkaline […] conjugate. Tubule formation was quantitatively assessed by measuring PECAM-1 positive staining using the image analysis program “Matrox inspector” to evaluate the percentage tubule staining relative to an untreated control.", "units": {"IC50": "nM"}, "values": [
      {"molecule": "O=C(O)Cc1nc(-c2ccc(-c3ccc(NC(=O)c4ccc(OC(F)(F)F)cc4)cc3Cl)o2)cs1", "note": "[Example 22, 2-[4-[5-[2-Chloro-4-[(4-trifluoromethoxyphenylcarbonyl)amino]phenyl]furan-2-yl]-1,3-thiazol-2-yl]acetic acid]", "IC50": 500},
      {"molecule": "O=C(O)Cc1nc(-c2ccc(-c3ccc(NC(=O)/C=C/c4ccc(Cl)cc4Cl)cc3Cl)o2)cs1", "note": "[Example 6, 2-[4-[5-[2-Chloro-4-[3-(2,4-dichloro)phenylacryloylamino]phenyl]furan-2-yl]1,3-thiazol-2-yl]acetic acid]", "IC50": 500},
      {"molecule": "O=C(O)Cc1nc(-c2ccc(-c3ccc(NC(=O)c4ccc(OC(F)(F)F)cc4)cc3)o2)cs1", "note": "[Example 4]", "IC50": 200},
      {"molecule": "O=C(O)Cc1nc(-c2ccc(-c3ccc(NC(=O)C=Cc4ccccc4)cc3Cl)o2)cs1", "note": "[Example 8, 2-[4-[5-[2-Chloro-4-(3-phenylacryloylamino)phenyl]furan-2-yl]-1,3-thiazol-2-yl]acetic acid]", "IC50": 15000},
      {"molecule": "O=C(O)Cc1nc(-c2ccc(-c3ccc(NC(=O)c4ccc(Cl)c(Cl)c4)cc3Cl)o2)cs1", "note": "[Example 18, 2-[4-[5-[2-Chloro-4-[(3,4-dichlorophenylcarbonyl)amino]phenyl]furan-2-yl]-1,3-thiazol-2-yl]acetic acid]", "IC50": 10000},
      {"molecule": "O=C(O)Cc1nc(-c2ccc(-c3ccc(NC(=O)/C=C/c4ccc(Br)cc4)cc3Cl)o2)cs1", "note": "[Example 5, 2-[4-[5-[2-Chloro-4-[3-(4-bromo)phenylacryloylamino]phenyl]furan-2-yl]-1,3-thiazol-2-yl]acetic acid]", "IC50": 1000},
      {"molecule": "O=C(O)Cc1nc(-c2ccc(-c3ccc(NC(=O)c4cc5ccccc5s4)cc3Cl)o2)cs1", "note": "[Example 11, 2-[4-[5-[2-Chloro-4-[(benzothiophene-2-carbonyl)amino]phenyl]furan-2-yl]-1,3-thiazol-2-yl]acetic acid]", "IC50": 20000}
    ]},
    {"target": "T1, human heparanase (Homo sapiens, UniProt Q9Y251)", "T1 sequence (Q9Y251 158-543 limits assumed)": "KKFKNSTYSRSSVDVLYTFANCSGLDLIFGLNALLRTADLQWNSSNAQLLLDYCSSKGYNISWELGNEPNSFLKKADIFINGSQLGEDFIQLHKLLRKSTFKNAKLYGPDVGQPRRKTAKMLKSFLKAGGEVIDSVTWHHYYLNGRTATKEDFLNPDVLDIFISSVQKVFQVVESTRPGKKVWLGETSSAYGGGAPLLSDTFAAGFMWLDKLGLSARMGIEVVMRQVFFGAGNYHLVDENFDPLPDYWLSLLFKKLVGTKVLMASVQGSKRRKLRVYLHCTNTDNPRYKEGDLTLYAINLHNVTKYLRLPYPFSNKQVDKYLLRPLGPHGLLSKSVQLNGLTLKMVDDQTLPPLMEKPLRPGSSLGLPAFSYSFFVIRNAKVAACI", "T1 sequence (Q9Y251 36-109 limits assumed)": "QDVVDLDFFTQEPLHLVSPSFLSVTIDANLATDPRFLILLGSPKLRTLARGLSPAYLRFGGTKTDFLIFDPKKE", "experiment": "Heparanase assay (bFGF binding to heparan sulphate, 96-well plate)", "type": "biochemical", "conditions": "2 h at 37° C., pH 5.5, read-out: Inhibition of Heparanase (IC50)", "method": "Heparanase assay: The assay is based upon the use of the specific binding of basic fibroblast growth factor (bFGF) to heparan sulphate. Heparan sulphate can be detected via binding of bFGF using a horse radish peroxidase-conjugated bFGF antibody.\nNunc Maxisorp 96-well plates are coated for 16 h at RT with 100 μl/well 0.04 mg/ml heparan sulphate in PBS. The wells are then aspirated and blocked for 1 h with 200 μl/well 1% BSA-PBS. Following five washes with 0.01% BSA, 0.05% Tween20 PBS (wash buffer), 100 μl of recombinant human basic FGF (90 ng/ml in 0.1% BSA/PBS) is added per well and the plate is incubated at room temperature for 1 h.\nAfter a further five washes with the wash buffer, 10 μl of test compound (in 10% DMSO) and 90 μl of human heparanase in 100 mM Sodium acetate, 5 mM CaCl2, pH 5.5 are added to each well and the plate incubated for 2 h at 37° C. The wells are washed again with wash buffer and 100 μl of bFGF antibody-horse radish peroxidase conjugate added. The plate is incubated at room temperature for 1 h and washed again five times with wash buffer. 100 μl of TMB peroxidase substrate is added and the colour allowed to develop for 10 min. The reaction is stopped with 50 μl 1M H2SO4 and the colour read at 450 nm on a plate reader.", "units": {"IC50": "nM"}, "values": [
      {"molecule": "2-[4-[5-[2-Chloro-4-[3-(3,5-bistrifluoromethyl)phenylacryloylamino]phenyl]furan-2-yl]-1,3-thiazol-2-yl]acetic acid [Example 7]", "IC50": 400},
      {"molecule": "COc1cccc(C(=O)Nc2ccc(-c3ccc(-c4csc(CC(=O)O)n4)o3)c(Cl)c2)c1", "note": "[Example 21, 2-[4-[5-[2-Chloro-4-[(3-methoxyphenylcarbonyl)amino]phenyl]furan-2-yl]-1,3-thiazol-2-yl]acetic acid]", "IC50": 7000},
      {"molecule": "O=C(O)Cc1nc(-c2ccc(-c3ccc(NC(=O)c4cc5ccccc5s4)cc3Cl)o2)cs1", "note": "[Example 11, 2-[4-[5-[2-Chloro-4-[(benzothiophene-2-carbonyl)amino]phenyl]furan-2-yl]-1,3-thiazol-2-yl]acetic acid]", "IC50": 400}
    ]}
  ]
}
